As a reminder, the IC50 is the concentration needed to halve the response being measured.

SMILES strings stand for the structures.

This experiment addresses T1, recombinant human Lp-PLA2 (Homo sapiens, UniProt Q13093).
T1 sequence (Q13093 22-441): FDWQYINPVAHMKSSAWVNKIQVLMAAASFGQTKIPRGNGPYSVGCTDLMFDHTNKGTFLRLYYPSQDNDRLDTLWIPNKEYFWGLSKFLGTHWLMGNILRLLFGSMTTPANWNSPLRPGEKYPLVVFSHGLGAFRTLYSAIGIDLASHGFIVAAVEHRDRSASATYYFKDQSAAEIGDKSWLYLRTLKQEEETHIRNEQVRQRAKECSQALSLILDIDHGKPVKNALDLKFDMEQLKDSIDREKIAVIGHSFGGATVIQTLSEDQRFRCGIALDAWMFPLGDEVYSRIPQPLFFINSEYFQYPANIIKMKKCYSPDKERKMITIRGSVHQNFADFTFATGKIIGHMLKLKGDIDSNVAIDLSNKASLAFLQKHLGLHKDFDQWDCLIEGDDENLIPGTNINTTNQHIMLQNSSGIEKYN
The experiment can be described thus: Recombinant human Lp-PLA2 assay (rhLp-PLA2, PED6 assay). It is filed as biochemical. As to conditions: one experiment or average of multiple experiments; upper limit of the PED6 assay is pIC50 9.3. The text has this: (1) Recombinant Human Lp-PLA2 Assay (rhLp-PLA2) (Also Referred to as “PED6” Assay)
N-((6-(2,4-dinitrophenyl)amino)-hexanoyl)-2-(4,4-difluoro-5,7-dimethyl-4-bora-3a,4a-diaza-s-indacene-3-pentanoyl)-1-hexadecanoyl-sn-glycero-3-phosphoethanolamine, triethylammonium salt (PED6) is a commercially available fluorescently-labeled phospholipid, which is commercially available from Molecular Probes. There is a quenching para-nitro phenyl (PNP) group in the sn3 position and a Bodipy fluorescein (FL) group in the sn2 position. Upon cleavage with LpPLA2, the Bodipy Fl group is liberated and then may result in an increase in fluorescence. Inhibitors of LpPLA2 therefore prevent this cleavage and no fluorescent increase is observed.
The PED6 assay is run as an unquenched 10 μL assay. Compounds source plate is prepared by making 1:3 (by volume) serial dilution of the compounds into pure DMSO on 384-well microplate. Then 0.01 μL of compounds on compound source plate are transferred into 384 well Greiner 784076 (black) plates by ECHO liquid dispenser. 5 μL of recombinant human Lp-PLA2 enzyme (2 nM rhLp-PLA2 in assay buffer of 50 mM HEPES, pH7.4, 150 mM NaCl, 1 mM CHAPS) is added to each well of the plate with compounds. Plates are centrifuged for 10 sec at 500 rpm. After 30 minutes preincubation, 5 μL of substrate (4 μM PED6 [from 5 mM DMSO stock] in assay buffer of 50 mM HEPES, pH7.4, 150 mM NaCl, 1 mM CHAPS) is added to 384 well Greiner 784076 (black) plates. Plates are centrifuged for 10 sec at 500 rpm. Plate is covered to protect from light and incubated for 20 min at room temperature. Plates are read for Fluorescence intensity at ex: 480/em: 540 using ViewLux microplate imager. PIC50 data, curve and QC analysis is conducted by using XL fit module in Excel.

`N#Cc1cc(COc2cc3n(c(=O)n2)CCc2cc(F)ccc2-3)ccc1Oc1ccc(C(F)(F)F)cn1` [Example 93, 5-(((9-fluoro-4-oxo-6,7-dihydro-4H-pyrimido[6,1-a]isoquinolin-2-yl)oxy)methyl)-2-((5-(trifluoromethyl)pyridin-2-yl)oxy)benzonitrile]: the IC50 was 1 nM.
For `N#Cc1cc(COc2cc3n(c(=O)n2)CCc2cc(F)ccc2-3)ccc1Oc1cccc(C(F)(F)F)c1` [Example 89, 5-(((9-fluoro-4-oxo-6,7-dihydro-4H-pyrimido[6,1-a]isoquinolin-2-yl)oxy)methyl)-2-(3-(trifluoromethyl)phenoxy)benzonitrile], the IC50 is 3.16 nM.
The result for `N#Cc1cc(COc2cc3n(c(=O)n2)CCc2ccccc2-3)ccc1Oc1ccc(C(F)(F)F)nc1` [Example 91, 5-(((4-oxo-6,7-dihydro-4H-pyrimido[6,1-a]isoquinolin-2-yl)oxy)methyl)-2-((6-(trifluoro-methyl)pyridin-3-yl)oxy)benzonitrile] reads 1 nM; that for `O=c1nc(OCc2ccc(Oc3cnc(C(F)(F)F)nc3)c(F)c2)cc2n1CCc1cc(F)ccc1-2` [Example 98, 9-fluoro-2-((3-fluoro-4-((2-(trifluoromethyl)pyrimidin-5-yl)oxy)benzyl)oxy)-6,7-dihydro-4H-pyrimido[6,1-a]isoquinolin-4-one], at most 0.501 nM.
Then `COc1ccc2c(c1)CCn1c-2cc(Oc2ccc(Oc3cccc(C(F)(F)F)c3)c(C#N)c2)nc1=O` [Example E1, 5-((9-Methoxy-4-oxo-6,7-dihydro-4H-pyrimido[6,1-a]isoquinolin-2-yl)oxy)-2-(3-(trifluoromethyl)phenoxy)benzonitrile], with at most 0.501 nM.
The result for `O=c1nc(OCc2cc(F)c(Oc3ccc(C(F)(F)F)nc3)c(F)c2)cc2n1CCc1ccccc1-2` [Example 94, 2-((3,5-difluoro-4-((6-(trifluoromethyl)pyridin-3-yl)oxy)benzyl)oxy)-6,7-dihydro-4H-pyrimido[6,1-a]isoquinolin-4-one] reads 1 nM; that for `COc1ccc2c(c1)CCn1c-2cc(OCc2ccc(Oc3ccc(C(F)(F)F)nc3)c(F)c2)nc1=O` [Example E58, 2-((3-fluoro-4-((6-(trifluoromethyl)pyridin-3-yl)oxy)benzyl)oxy)-9-methoxy-6,7-dihydro-4H-pyrimido[6,1-a]isoquinolin-4-one], 1 nM; that for `N#Cc1cc(COc2cc3n(c(=O)n2)CCc2ccccc2-3)ccc1Oc1cccc(C(F)(F)F)n1` [Example 96, 5-(((4-oxo-6,7-dihydro-4H-pyrimido[6,1-a]isoquinolin-2-yl)oxy)methyl)-2-((6-(trifluoro-methyl)pyridin-2-yl)oxy)benzonitrile], 0.794 nM.
`COc1ccc2c(c1)CCn1c-2cc(OCc2ccc(Oc3ccc(C(F)(F)F)cn3)c(C#N)c2)nc1=O` [Example E22, 5-(((9-Methoxy-4-oxo-6,7-dihydro-4H-pyrimido[6,1-a]isoquinolin-2-yl)oxy)methyl)-2-((5-(trifluoromethyl)pyridin-2-yl)oxy)benzonitrile]: the IC50 is 0.631 nM.
The result for `N#Cc1cc(COc2cc3n(c(=O)n2)CCc2cc(F)ccc2-3)ccc1Oc1ccc(Cl)c(C(F)(F)F)c1` [Example 92, 2-(4-chloro-3-(trifluoromethyl)phenoxy)-5-(((9-fluoro-4-oxo-6,7-dihydro-4H-pyrimido[6,1-a]isoquinolin-2-yl)oxy)methyl)benzonitrile] reads 0.794 nM; that for `COc1ccc2c(c1)CCn1c-2cc(OCc2ccc(Oc3ccc(C(F)(F)F)nc3)c(C#N)c2)nc1=O` [Example E36, 5-({[9-(Methyloxy)-4-oxo-6,7-dihydro-4H-pyrimido[6,1-a]isoquinolin-2-yl]oxy}methyl)-2-{[6-(trifluoromethyl)-3-pyridinyl]oxy}benzonitrile], 1 nM; that for `N#Cc1cc(COc2cc3n(c(=O)n2)CCc2ccccc2-3)ccc1Oc1ccc(Cl)c(C(F)(F)F)c1` [Example 88, 2-(4-chloro-3-(trifluoromethyl)phenoxy)-5-(((4-oxo-6,7-dihydro-4H-pyrimido[6,1-a]isoquinolin-2-yl)oxy)methyl)benzonitrile], 0.794 nM.
